From US4332794A, “6"-Deoxydibekacin, 4",6"-dideoxydibekacin and 1-N-aminoacyl derivatives thereof, and the production of these new compounds” (Zaidan Hojin Biseibutsu Kagaku Kenkyu Kai, priority 1979, dated 1982)
Values after ≈ are worked out from the molar mass of the structure shown. Where two headings read alike, the source gives them in different places.

Key:
[1] = test system: Pseudomonas aeruginosa 99; test: MIC, serial dilution on nutrient agar; assay type: cell-based
Escherichia coli W677 = test: MIC, serial dilution on nutrient agar; assay type: cell-based; settings: W677, 18 h
[2] = test system: Escherichia coli K-12 ML 1629; test: MIC, serial dilution on nutrient agar; assay type: cell-based; settings: K12ML1629, 37° C., 18 hours
Procedure: (§1) The minimum inhibitory concentrations (mcg/ml) of 6"-deoxydibekacin (abbreviated as 6"-DDKB), 4",6"-dideoxydibekacin (abbreviated as 4",6"-DDKB), 1-N-(L-4-amino-2-hydroxybutyryl)-6"-deoxydibekacin (abbreviated as AHB-6"-DDKB) and 1-N-(L-4-amino-2-hydroxybutyryl)-4",6"-dideoxydibekacin (abbreviated as AHB-4",6"-DDKB) of this invention against various microorganisms were determined according to serial dilution method on a nutrient agar medium at 37° C., the estimation being made after 18 hours incubation. For comparison purpose, the minimum inhibitory concentrations of dibekacin (abbreviated as DKB) were also determined in the same manner as stated above.

[3] = test system: Escherichia coli K-12 J5B 11-2; test: MIC, serial dilution on nutrient agar; assay type: cell-based; settings: K12J5B112, 37° C., 18 hours
Procedure: as §1

Serratia SOU = test: MIC, serial dilution on nutrient agar; assay type: cell-based; settings: 37° C., 18 hours
Procedure: as §1

[4] = test system: Pseudomonas maltophilia GN907; test: MIC, serial dilution on nutrient agar; assay type: cell-based; settings: Stenotrophomonas maltophilia, 37° C., 18 hours
Procedure: as §1

[5] = test system: Shigella flexneri 4b JS11811; test: MIC, serial dilution on nutrient agar; assay type: cell-based; settings: 4BJS11811, 37° C., 18 hours
Procedure: as §1

[6] = test system: Staphylococcus aureus 209P; test: MIC, serial dilution on nutrient agar; assay type: cell-based; settings: 37° C., 18 hours
Procedure: as §1

Proteus vulgaris OX19 = test: MIC, serial dilution on nutrient agar; assay type: cell-based; settings: 37° C., 18 hours
Procedure: as §1

[7] = test system: Klebsiella pneumoniae PCI 602; test: MIC, serial dilution on nutrient agar; assay type: cell-based; settings: PCI602, 37° C., 18 hours
Procedure: as §1

[8] = test system: Escherichia coli K-12 ML 1630; test: MIC, serial dilution on nutrient agar; assay type: cell-based; settings: K12ML1630, 37° C., 18 hours
Procedure: as §1

Providencia 2991 = test: MIC, serial dilution on nutrient agar; assay type: cell-based; settings: 37° C., 18 hours
Procedure: as §1

[9] = test system: Pseudomonas aeruginosa GN315; test: MIC, serial dilution on nutrient agar; assay type: cell-based; settings: 37° C., 18 hours
Procedure: as §1

Serratia 4 = test: MIC, serial dilution on nutrient agar; assay type: cell-based; settings: 37° C., 18 hours
Procedure: as §1

[10] = test system: Escherichia coli K-12 C 600R/35; test: MIC, serial dilution on nutrient agar; assay type: cell-based; settings: K12C600R/35, 37° C., 18 hours
Procedure: as §1

Serratia marcescens = test: MIC, serial dilution on nutrient agar; assay type: cell-based; settings: 37° C., 18 hours
Procedure: as §1

Shigella sonnei JS11746 = test: MIC, serial dilution on nutrient agar; assay type: cell-based; settings: 37° C., 18 hours
Procedure: as §1

[11] = test system: Pseudomonas aeruginosa 21-75; test: MIC, serial dilution on nutrient agar; assay type: cell-based; settings: 2175, 37° C., 18 hours
Procedure: as §1

[12] = test system: Escherichia coli K-12 R 388; test: MIC, serial dilution on nutrient agar; assay type: cell-based; settings: K12R388, 18 h
[13] = test system: Mycrococcus flavus FDA 16; test: MIC, serial dilution on nutrient agar; assay type: cell-based; settings: 18 h
Sarcina lutea PCI 1001 = test: MIC, serial dilution on nutrient agar; assay type: cell-based; settings: Micrococcus luteus, PCI1001, 18 h
[14] = test system: Pseudomonas aeruginosa PST1; test: MIC, serial dilution on nutrient agar; assay type: cell-based
[15] = test system: Bacillus cereus ATCC 10702; test: MIC, serial dilution on nutrient agar; assay type: cell-based
[16] = test system: Pseudomonas aeruginosa TI-13; test: MIC, serial dilution on nutrient agar; assay type: cell-based
[17] = test system: Salmonella enteritidis 1891; test: MIC, serial dilution on nutrient agar; assay type: cell-based; settings: Salmonella enterica
Providencia Pv 16 = test: MIC, serial dilution on nutrient agar; assay type: cell-based
[18] = test system: Pseudomonas aeruginosa A3; test: MIC, serial dilution on nutrient agar; assay type: cell-based; settings: A3, 18 h
Salmonella typhi F63 = test: MIC, serial dilution on nutrient agar; assay type: cell-based; settings: Salmonella enterica, 18 h
[19] = test system: Pseudomonas aeruginosa ROS134/PU21; test: microbe, parasite or virus in culture; assay type: cell-based; settings: ROS134/PU21, 18 h
Escherichia coli JR255 = test: microbe, parasite or virus in culture; assay type: cell-based; settings: JR255, 18 h
[20] = test system: Escherichia coli K-12 1410 R81; test: MIC, serial dilution on nutrient agar; assay type: cell-based; settings: K121410R81, 18 h
[21] = test system: Bacillus subtilis PCI 219; test: MIC, serial dilution on nutrient agar; assay type: cell-based; settings: PCI219, 37° C., 18 hours
Escherichia coli K-12 R5 = test: microbe, parasite or virus in culture; assay type: cell-based; settings: K12R5, 18 h
Proteus rettgeri GN311 = test: MIC, serial dilution on nutrient agar; assay type: cell-based; settings: Providencia rettgeri
[22] = test system: Staphylococcus epidermidis 109; test: MIC, serial dilution on nutrient agar; assay type: cell-based; settings: Staphylococcus epidermidis, 109, 18 h
[23] = test system: Pseudomonas aeruginosa No. 12; test: MIC, serial dilution on nutrient agar; assay type: cell-based; settings: NO.12, nutrient agar, 37° C., 18 hours, read-out: MIC
intravenous LD50 in mice = settings: mouse, in vivo, estimated
[24] = test system: Escherichia coli K-12 LA 290 R55; test: microbe, parasite or virus in culture; assay type: cell-based; settings: K12LA290R55, 18 h
Proteus rettgeri GN466 = test: MIC, serial dilution on nutrient agar; assay type: cell-based; settings: Providencia rettgeri, GN466, 18 h
[25] = test system: Corynebacterium bovis 1810; test: MIC, serial dilution on nutrient agar; assay type: cell-based; settings: Corynebacterium bovis, 1810, 18 h

SMILES	MIC (Escherichia coli W677) [µg/mL]	MIC [2] [µg/mL]	MIC [3] [µg/mL]	MIC (Serratia SOU) [µg/mL]	MIC [4] [µg/mL]	MIC [5] [µg/mL]	MIC [6] [µg/mL]	MIC (Proteus vulgaris OX19) [µg/mL]	MIC [7] [µg/mL]	MIC [8] [µg/mL]	MIC (Providencia 2991) [µg/mL]	MIC [9] [µg/mL]	MIC (Serratia 4) [µg/mL]	MIC [10] [µg/mL]	MIC (Serratia marcescens) [µg/mL]	MIC (Shigella sonnei JS11746) [µg/mL]	MIC [11] [µg/mL]	MIC [12] [µg/mL]	MIC [13] [µg/mL]	MIC (Sarcina lutea PCI 1001) [µg/mL]	further results
C[C@@H]1C[C@H](N)[C@@H](O)[C@@H](O[C@@H]2[C@@H](O)[C@H](O[C@H]3O[C@H](CN)CC[C@H]3N)[C@@H](N)C[C@H]2N)O1 [4",6"-DDKB, 4",6"-dideoxydibekacin]	0.78 (≈ 1.86 µM)	3.13 (≈ 7.46 µM)	3.13 (≈ 7.46 µM)	> 100	> 100	3.13 (≈ 7.46 µM)	0.39 (≈ 0.93 µM)	0.78 (≈ 1.86 µM)	0.78 (≈ 1.86 µM)	3.13 (≈ 7.46 µM)	> 100	> 100	100 (≈ 238 µM)	50 (≈ 119 µM)	100 (≈ 238 µM)	3.13 (≈ 7.46 µM)	> 100	1.56 (≈ 3.72 µM)	50 (≈ 119 µM)	50 (≈ 119 µM)	MIC ([1]; Pseudomonas aeruginosa, 99, 18 h): > 100 µg/mL; MIC ([14]; PST1, 18 h): > 100 µg/mL; MIC ([15]; ATCC10702, nutrient agar, 37° C., 18 hours, read-out: MIC): 6.25 µg/mL (≈ 14.9 µM); MIC ([16]; TI13, 18 h): 100 µg/mL (≈ 238 µM); MIC ([17]; nutrient agar, 37° C., 18 hours, read-out: MIC): 6.25 µg/mL (≈ 14.9 µM); MIC (Providencia Pv 16; PV16, 18 h): > 100 µg/mL; MIC [18]: 3.13 µg/mL (≈ 7.46 µM); MIC (Salmonella typhi F63): 0.78 µg/mL (≈ 1.86 µM); MIC [19]: > 100 µg/mL; MIC (Escherichia coli JR255): 100 µg/mL (≈ 238 µM); MIC [20]: 1.56 µg/mL (≈ 3.72 µM); MIC [21]: < 0.2 µg/mL; MIC (Escherichia coli K-12 R5): > 100 µg/mL; MIC (Proteus rettgeri GN311; GN311, 18 h): 3.13 µg/mL (≈ 7.46 µM); MIC [22]: 3.13 µg/mL (≈ 7.46 µM); MIC [23]: 12.5 µg/mL (≈ 29.8 µM); LD50 (intravenous LD50 in mice): > 60 mg/kg; MIC [24]: 100 µg/mL (≈ 238 µM); MIC (Proteus rettgeri GN466): 1.56 µg/mL (≈ 3.72 µM); MIC [25]: 50 µg/mL (≈ 119 µM)
C[C@@H]1C[C@H](N)[C@@H](O)[C@@H](O[C@@H]2[C@@H](O)[C@H](O[C@H]3O[C@H](CN)CC[C@H]3N)[C@@H](N)C[C@H]2NC(=O)[C@@H](O)CCN)O1 [AHB-4",6"-DDKB, 1-N-(L-4-amino-2-hydroxybutyryl)-4",6"-dideoxydibekacin]	1.56 (≈ 3 µM)	1.56 (≈ 3 µM)	1.56 (≈ 3 µM)	> 100	> 100	6.25 (≈ 12 µM)	0.78 (≈ 1.5 µM)	0.39 (≈ 0.749 µM)	0.78 (≈ 1.5 µM)	1.56 (≈ 3 µM)	100 (≈ 192 µM)	100 (≈ 192 µM)	6.25 (≈ 12 µM)	0.78 (≈ 1.5 µM)	100 (≈ 192 µM)	3.13 (≈ 6.01 µM)	> 100	0.78 (≈ 1.5 µM)	1.56 (≈ 3 µM)	3.13 (≈ 6.01 µM)	MIC ([1]; Pseudomonas aeruginosa, 99, nutrient agar, 37° C., 18 hours, read-out: MIC): 12.5 µg/mL (≈ 24 µM); MIC ([14]; PST1, nutrient agar, 37° C., 18 hours, read-out: MIC): 25 µg/mL (≈ 48 µM); MIC ([15]; ATCC10702, 18 h): 1.56 µg/mL (≈ 3 µM); MIC ([16]; TI13, nutrient agar, 37° C., 18 hours, read-out: MIC): 25 µg/mL (≈ 48 µM); MIC ([17]; 18 h): 6.25 µg/mL (≈ 12 µM); MIC (Providencia Pv 16; PV16, nutrient agar, 37° C., 18 hours, read-out: MIC): 25 µg/mL (≈ 48 µM); MIC [18]: 1.56 µg/mL (≈ 3 µM); MIC (Salmonella typhi F63): 0.39 µg/mL (≈ 0.749 µM); MIC [19]: > 100 µg/mL; MIC (Escherichia coli JR255): 1.56 µg/mL (≈ 3 µM); MIC [20]: 1.56 µg/mL (≈ 3 µM); MIC [21]: < 0.2 µg/mL; MIC (Escherichia coli K-12 R5): 100 µg/mL (≈ 192 µM); MIC (Proteus rettgeri GN311; GN311, nutrient agar, 37° C., 18 hours, read-out: MIC): 25 µg/mL (≈ 48 µM); MIC [22]: 1.56 µg/mL (≈ 3 µM); MIC [23]: 12.5 µg/mL (≈ 24 µM); LD50 (intravenous LD50 in mice): > 80 mg/kg; MIC [24]: 1.56 µg/mL (≈ 3 µM); MIC (Proteus rettgeri GN466): 3.13 µg/mL (≈ 6.01 µM); MIC [25]: 6.25 µg/mL (≈ 12 µM)
